US9593109B2, “Bicyclic agonists of GPR131 and uses thereof” (CYMABAY THERAPEUTICS, INC., priority 2011, dated 2017)

The molecules below were run against T1, human GPR131 (Homo sapiens, UniProt Q8TDU6) (assay: Stimulation of cAMP (agonism of GPR131), FRET cAMP assay). Conditions: 0.5 h; 1.1 μM compound; compared to maximal stimulatory activity of lithocholic acid (LCA) determined at 3.3 μM; stable cell line expressing human GPR131; 37° C. for 30 minutes; read-out: Percent Activity @ 1.1 μM (of 3.3 uM LCA) (%).
T1 construct: expressed in transfected cells
T1 sequence (Q8TDU6 1-330): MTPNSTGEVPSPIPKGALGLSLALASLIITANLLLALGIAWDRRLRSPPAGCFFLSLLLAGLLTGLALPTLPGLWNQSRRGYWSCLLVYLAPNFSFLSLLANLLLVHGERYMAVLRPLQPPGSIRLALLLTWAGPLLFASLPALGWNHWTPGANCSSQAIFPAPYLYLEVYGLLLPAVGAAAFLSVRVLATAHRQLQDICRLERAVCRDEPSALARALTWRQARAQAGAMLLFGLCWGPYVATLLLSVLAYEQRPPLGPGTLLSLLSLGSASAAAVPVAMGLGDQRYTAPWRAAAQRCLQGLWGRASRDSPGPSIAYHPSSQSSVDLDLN
Format: cell-based
Method: This assay was developed using a stable cell line expressing human GPR131.
To measure cAMP activity in response to GPR131 agonists, GPR131 cells suspended in DMEM/F12 medium with 1 mM IBMX were seeded in 384 well plates at 5000 cells per well. After incubating with test compounds at 37° C. for 30 minutes cAMP was measured using a fluorescene resonance energy transfer cAMP kit from Cis Bio (Bedford, Mass.) according to the manufacturer's instructions. Briefly, cells were lysed, and cAMP levels determined by competitive immunoassay using D2 labeled cAMP, and europium cryptate tagged anti cAMP antibody. Decreases in the FRET signal (fluorescence ratio (665 nm/620 […]) correspond to increases in intracellular cAMP levels.
Activities of test compounds in Table 1 below are expressed as percent activity at 1.1 μM compound compared to the maximal stimulatory activity of lithocholic acid (LCA) (determined at 3.3 μM LCA).

activation at 1.1 µM [%]	Structure (SMILES)
95.7	Clc1ccc(-n2nnnc2-c2c(-c3cc(Cl)ccc3Cl)nc3occn23)cc1 [Compound 551, 5-(1-(4-Chlorophenyl)-1H-tetrazol-5-yl)-6-(2,5-dichlorophenyl)imidazo[2,1-b]oxazole]
100	Clc1ccc(-n2nnnc2-c2c(-c3cc(Cl)ccc3Cl)nc3ccccn23)cc1 [Compound 552, 3-(1-(4-Chlorophenyl)-1H-tetrazol-5-yl)-2-(2,5-dichlorophenyl)imidazo[1,2-a]pyridine]
100	Clc1ccc(-n2nnnc2-c2c(-c3cc(Cl)ccc3Cl)nc3cccnn23)cc1 [Compound 555, 3-(1-(4-Chlorophenyl)-1H-tetrazol-5-yl)-2-(2,5-dichlorophenyl)imidazo[1,2-b]pyridazine]
88.4	Clc1ccc(-n2nnnc2-c2c(-c3cc(Cl)ccc3Cl)nc3cnccn23)cc1 [Compound 556, 3-(1-(4-Chlorophenyl)-1H-tetrazol-5-yl)-2-(2,5-dichlorophenyl)imidazo[1,2-a]pyrazine]
100	Clc1ccc(-n2ccnc2-c2c(-c3cc(Cl)ccc3Cl)nc3cccnn23)cc1 [Compound 561, 3-(1-(4-Chlorophenyl)-1H-imidazol-2-yl)-2-(2,5-dichlorophenyl)imidazo[1,2-b]pyridazine]
97.9	FC(F)(F)c1ccc(-n2nnnc2-c2c(-c3cc(Cl)ccc3Cl)nc3ccccn23)cc1 [Compound 562, 2-(2,5-Dichlorophenyl)-3-(1-(4-(trifluoromethyl)phenyl)-1H-tetrazol-5-yl)imidazo[1,2-a]pyridine]
99.5	FC(F)(F)c1ccc(-n2nnnc2-c2c(-c3cc(Cl)ccc3Cl)nc3cccnn23)cc1 [Compound 563, 2-(2,5-Dichlorophenyl)-3-(1-(4-(trifluoromethyl)phenyl)-1H-tetrazol-5-yl)imidazo[1,2-b]pyridazine]
99.7	N#Cc1ccc(-n2nnnc2-c2c(-c3cc(Cl)ccc3Cl)nc3ccccn23)cc1 [Compound 566, 4-(5-(2-(2,5-Dichlorophenyl)imidazo[1,2-a]pyridin-3-yl)-1H-tetrazol-1-yl)benzonitrile]

More lines, now with the values behind:

Structure (SMILES)	activation at 1.1 µM [%]
Cn1ncc2c(-n3cnnc3-c3c(-c4cc(Cl)ccc4Cl)nc4ccccn34)cccc21 [Compound 545, 4-(3-(2-(2,5-Dichlorophenyl)imidazo[1,2-a]pyridin-3-yl)-4H-1,2,4-triazol-4-yl)-1-methyl-1H-indazole]	90.9
Clc1ccc(-n2cnnc2-c2c(-c3cc(Cl)ccc3Cl)nc3ccccn23)cc1 [Compound 553, 3-(4-(4-Chlorophenyl)-4H-1,2,4-triazol-3-yl)-2-(2,5-dichlorophenyl)imidazo[1,2-a]pyridine]	99.9
Clc1ccc(-n2ncnc2-c2c(-c3cc(Cl)ccc3Cl)nc3ccccn23)cc1 [Compound 554, 3-(1-(4-Chlorophenyl)-1H-1,2,4-triazol-5-yl)-2-(2,5-dichlorophenyl)imidazo[1,2-a]pyridine]	99.9
Clc1ccc(-n2ccnc2-c2c(-c3ccccc3Cl)nc3ccccn23)cc1 [Compound 557, 2-(2-Chlorophenyl)-3-(1-(4-chlorophenyl)-1H-imidazol-2-yl)imidazo[1,2-a]pyridine]	99.7
Clc1ccc(-n2nnnc2-c2c(-c3cc(Cl)ccc3Cl)nc3n2CCCC3)cc1 [Compound 559, 3-(1-(4-Chlorophenyl)-1H-tetrazol-5-yl)-2-(2,5-dichlorophenyl)-5,6,7,8-tetrahydroimidazo[1,2-a]pyridine]	94.6
Clc1ccc(-n2ccnc2-c2c(-c3cc(Cl)ccc3Cl)nc3n2CCCC3)cc1 [Compound 560, 3-(1-(4-Chlorophenyl)-1H-imidazol-2-yl)-2-(2,5-dichlorophenyl)-5,6,7,8-tetrahydroimidazo[1,2-a]pyridine]	100
FC(F)(F)c1ccc(-n2ccnc2-c2c(-c3cc(Cl)ccc3Cl)nc3ccccn23)cc1 [Compound 564, 2-(2,5-Dichlorophenyl)-3-(1-(4-(trifluoromethyl)phenyl)-1H-imidazol-2-yl)imidazo[1,2-a]pyridine]	100
FC(F)(F)c1ccc(-n2ccnc2-c2c(-c3cc(Cl)ccc3Cl)nc3cccnn23)cc1 [Compound 565, 2-(2,5-Dichlorophenyl)-3-(1-(4-(trifluoromethyl)phenyl)-1H-imidazol-2-yl)imidazo[1,2-b]pyridazine]	100
N#Cc1ccc(-n2ccnc2-c2c(-c3cc(Cl)ccc3Cl)nc3ccccn23)cc1 [Compound 567, 4-(2-(2-(2,5-Dichlorophenyl)imidazo[1,2-a]pyridin-3-yl)-1H-imidazol-1-yl)benzonitrile]	99.9
Clc1cccc(-c2nc3ccccn3c2-c2nncn2-c2ccc3cn[nH]c3c2)c1 [Compound 568, 6-(3-(2-(3-Chlorophenyl)imidazo[1,2-a]pyridin-3-yl)-4H-1,2,4-triazol-4-yl)-1H-indazole]	96
